Activity calls are given as the source filed them. The calls are words filed in the database; no cut-off is given here.
What was measured:
Assay type in all cases: functional, cell-based
[1] = tested on: MCF7; experiment: Antiproliferative activity against human MCF7 cells after 48 hrs by Alamar blue assay; conditions: MCF7, 48 h
[2] = tested on: BT-474; experiment: Antiproliferative activity against human BT474 cells after 48 hrs by Alamar blue assay; conditions: BT-474, 48 h
[3] = tested on: MCF7; experiment: Cytotoxicity against human MCF7 cells assessed as morphological changes after 48 hrs by microscopic analysis

IC50 [1] [µM] | IC50 [2] [µM] | Compound | Activity [3]
0.5 | > 100 | COc1ccc(C2=NOC([C@@]3(C)CC(=O)[C@]4(O)[C@@]5(C)[C@@H](OCc6cc(-c7ccc(OC)c(OC)c7)no6)CCC(C)(C)[C@@H]5[C@H](O)[C@H](OC(C)=O)[C@@]4(C)O3)C2)cc1OC (stereo partly specified) | 
3.3 | 1.3 | CC(=O)O[C@H]1[C@H]2C(C)(C)CC[C@H](OCc3cc(-c4ccc(OCc5ccccc5)cc4)no3)[C@]2(C)[C@@]2(O)C(=O)C[C@](C)(C3CC(c4ccc(OCc5ccccc5)cc4)=NO3)O[C@]2(C)[C@H]1O (stereo partly specified) | 
1.6 | 7 | CC[C@@]1(C)CC(=O)[C@]2(O)[C@@]3(C)[C@@H](OCc4cc(-c5ccc(Cl)cc5)no4)CCC(C)(C)[C@@H]3[C@H](O)[C@H](OC(C)=O)[C@@]2(C)O1 | 
79.3 | > 100 | COc1ccc(C2=NOC([C@@]3(C)CC(=O)[C@]4(O)[C@@]5(C)[C@@H](OCc6cc(-c7ccc(OC)cc7)no6)CCC(C)(C)[C@@H]5[C@H](OC(C)=O)[C@H](O)[C@@]4(C)O3)C2)cc1 (stereo partly specified) | 
0.5 | 5 | C=C[C@@]1(C)CC(=O)[C@]2(O)[C@@]3(C)[C@@H](OCc4cc(-c5ccccc5)no4)CCC(C)(C)[C@@H]3[C@H](O)[C@H](OC(C)=O)[C@@]2(C)O1 | Active
3 | 4.3 | COc1ccc(C2=NOC([C@@]3(C)CC(=O)[C@]4(O)[C@@]5(C)[C@@H](OCc6cc(-c7ccc(OC)cc7)no6)CCC(C)(C)[C@@H]5[C@H](O)[C@H](OC(C)=O)[C@@]4(C)O3)C2)cc1 (stereo partly specified) | 
0.5 | > 100 | C=C[C@@]1(C)CC(=O)[C@]2(O)[C@@]3(C)[C@@H](OCc4cc(-c5c(OC)cc(OC)cc5OC)no4)CCC(C)(C)[C@@H]3[C@H](OC(C)=O)[C@H](O)[C@@]2(C)O1 | 
0.5 | > 100 | COc1ccc(C2=NOC([C@@]3(C)CC(=O)[C@]4(O)[C@@]5(C)[C@@H](OCc6cc(-c7ccc(OC)c(OC)c7)no6)CCC(C)(C)[C@@H]5[C@H](OC(C)=O)[C@H](O)[C@@]4(C)O3)C2)cc1OC (stereo partly specified) | 
57.3 | > 100 | C=C[C@@]1(C)CC(=O)[C@]2(O)[C@@]3(C)[C@@H](OCc4cc(-c5ccc(OC)cc5)no4)CCC(C)(C)[C@@H]3[C@H](OC(C)=O)[C@H](O)[C@@]2(C)O1 | 
4.4 | > 100 | C=C[C@@]1(C)CC(=O)[C@]2(O)[C@@]3(C)[C@@H](OCc4cc(-c5cc(OC)c(OC)c(OC)c5)no4)CCC(C)(C)[C@@H]3[C@H](OC(C)=O)[C@H](O)[C@@]2(C)O1 | 
5.6 | > 100 | C=C[C@@]1(C)CC(=O)[C@]2(O)[C@@]3(C)[C@@H](OCc4cc(-c5ccc(Cl)cc5)no4)CCC(C)(C)[C@@H]3[C@H](O)[C@H](OC(C)=O)[C@@]2(C)O1 | 
12 | 28.3 | C=C[C@@]1(C)CC(=O)[C@]2(O)[C@@]3(C)[C@@H](OCc4cc(-c5ccc(OC)c(OC)c5)no4)CCC(C)(C)[C@@H]3[C@H](OC(C)=O)[C@H](O)[C@@]2(C)O1 | 
0.5 | 4 | C=C[C@@]1(C)CC(=O)[C@]2(O)[C@@]3(C)[C@@H](OCc4cc(-c5ccc(OC)cc5)no4)CCC(C)(C)[C@@H]3[C@H](O)[C@H](OC(C)=O)[C@@]2(C)O1 | Active
10 | > 100 | C#CCO[C@H]1CCC(C)(C)[C@@H]2[C@H](O)[C@H](OC(C)=O)[C@@]3(C)O[C@@](C)(CC)CC(=O)[C@]3(O)[C@@]12C | 
> 100 | > 100 | C#CCO[C@H]1CCC(C)(C)[C@@H]2[C@H](O)[C@H](OC(C)=O)[C@@]3(C)O[C@@](C)(C=C)CC(=O)[C@]3(O)[C@@]12C | 
7 | 75 | C=C[C@@]1(C)CC(=O)[C@]2(O)[C@@]3(C)[C@@H](OCc4cc(-c5ccc(C)cc5)no4)CCC(C)(C)[C@@H]3[C@H](O)[C@H](OC(C)=O)[C@@]2(C)O1 | 
0.5 | 0.5 | C=C[C@@]1(C)CC(=O)[C@]2(O)[C@@]3(C)[C@@H](OCc4cc(-c5ccc(OCc6ccccc6)cc5)no4)CCC(C)(C)[C@@H]3[C@H](O)[C@H](OC(C)=O)[C@@]2(C)O1 | Active

IC50 [1] [µM] | IC50 [2] [µM] | Compound | Activity [3]
4 | > 100 | C=C[C@@]1(C)CC(=O)[C@]2(O)[C@@]3(C)[C@@H](OCc4cc(-c5ccc(Cl)cc5)no4)CCC(C)(C)[C@@H]3[C@H](OC(C)=O)[C@H](O)[C@@]2(C)O1 | 
35.3 | > 100 | CC(=O)O[C@H]1[C@@H](O)[C@H]2C(C)(C)CC[C@H](OCc3cc(-c4ccccc4)no3)[C@]2(C)[C@@]2(O)C(=O)C[C@](C)(C3CC(c4ccccc4)=NO3)O[C@]12C (stereo partly specified) | 
0.5 | 29.3 | CC[C@@]1(C)CC(=O)[C@]2(O)[C@@]3(C)[C@@H](OCc4cc(-c5cc(OC)c(OC)c(OC)c5)no4)CCC(C)(C)[C@@H]3[C@H](O)[C@H](OC(C)=O)[C@@]2(C)O1 | 
52.6 | 79.6 | CC(=O)O[C@H]1[C@@H](O)[C@H]2C(C)(C)CC[C@H](OCc3cc(-c4ccc(OCc5ccccc5)cc4)no3)[C@]2(C)[C@@]2(O)C(=O)C[C@](C)(C3CC(c4ccc(OCc5ccccc5)cc4)=NO3)O[C@]12C (stereo partly specified) | 
32 | > 100 | C=C[C@@]1(C)CC(=O)[C@]2(O)[C@@]3(C)[C@@H](OCc4cc(-c5ccc(C)cc5)no4)CCC(C)(C)[C@@H]3[C@H](OC(C)=O)[C@H](O)[C@@]2(C)O1 | 
1.1 | > 100 | C=C[C@@]1(C)CC(=O)[C@]2(O)[C@@]3(C)[C@@H](OCc4cc(-c5ccc(OC)c(OC)c5)no4)CCC(C)(C)[C@@H]3[C@H](O)[C@H](OC(C)=O)[C@@]2(C)O1 | 
84.6 | > 100 | C=C[C@@]1(C)CC(=O)[C@]2(O)[C@@]3(C)[C@@H](OCc4cc(-c5ccc(OCc6ccccc6)cc5)no4)CCC(C)(C)[C@@H]3[C@H](OC(C)=O)[C@H](O)[C@@]2(C)O1 | 
55.3 | > 100 | C=C[C@@]1(C)CC(=O)[C@]2(O)[C@@]3(C)[C@@H](OCc4cc(-c5cc(OC)c(OC)c(OC)c5)no4)CCC(C)(C)[C@@H]3[C@H](O)[C@H](OC(C)=O)[C@@]2(C)O1 | 
30 | > 100 | C#CCO[C@H]1CCC(C)(C)[C@@H]2[C@H](OC(C)=O)[C@H](O)[C@@]3(C)O[C@@](C)(C=C)CC(=O)[C@]3(O)[C@@]12C | 
63.3 | > 100 | C=C[C@@]1(C)CC(=O)[C@]2(O)[C@@]3(C)[C@@H](O)CCC(C)(C)[C@@H]3[C@H](O)[C@H](OC(C)=O)[C@@]2(C)O1 [COLFORSIN] | Active
2.6 | 9.1 | CC[C@@]1(C)CC(=O)[C@]2(O)[C@@]3(C)[C@@H](OCc4cc(-c5ccccc5)no4)CCC(C)(C)[C@@H]3[C@H](O)[C@H](OC(C)=O)[C@@]2(C)O1 | 
59 | > 100 | CC(=O)O[C@H]1[C@H]2C(C)(C)CC[C@H](OCc3cc(-c4ccc(C)cc4)no3)[C@]2(C)[C@@]2(O)C(=O)C[C@](C)(C3CC(c4ccc(C)cc4)=NO3)O[C@]2(C)[C@H]1O (stereo partly specified) | 
9.6 | > 100 | CC[C@@]1(C)CC(=O)[C@]2(O)[C@@]3(C)[C@@H](OCc4cc(-c5ccc(OC)c(OC)c5)no4)CCC(C)(C)[C@@H]3[C@H](O)[C@H](OC(C)=O)[C@@]2(C)O1 | 
5.6 | > 100 | CC(=O)O[C@H]1[C@@H](O)[C@H]2C(C)(C)CC[C@H](OCc3cc(-c4ccc(C)cc4)no3)[C@]2(C)[C@@]2(O)C(=O)C[C@](C)(C3CC(c4ccc(C)cc4)=NO3)O[C@]12C (stereo partly specified) | 
0.5 | > 100 | C=C[C@@]1(C)CC(=O)[C@]2(O)[C@@]3(C)[C@@H](OCc4cc(-c5c(OC)cc(OC)cc5OC)no4)CCC(C)(C)[C@@H]3[C@H](O)[C@H](OC(C)=O)[C@@]2(C)O1 | 
0.5 | 2.1 | CC[C@@]1(C)CC(=O)[C@]2(O)[C@@]3(C)[C@@H](OCc4cc(-c5ccc(OC)cc5)no4)CCC(C)(C)[C@@H]3[C@H](O)[C@H](OC(C)=O)[C@@]2(C)O1 | Active

— ChEMBL document CHEMBL4219035, “Synthesis of novel forskolin isoxazole derivatives with potent anti-cancer activity against breast cancer cell lines” (Bioorg Med Chem Lett, 2017)
